The text below walks through data of PMC9046087, “Structural basis of tethered agonism of the adhesion GPCRs ADGRD1 and ADGRF1” (Nature, 2022).

Ends that are not written are not given here.

What all share (assay type): cell-based
Assay [1] addresses T1, ADGRD1 (Homo sapiens, UniProt Q6QNK2).
T1 construct: Flag (N); expressed in transfected cells; host or cells: HEK293F
T1 sequence (Q6QNK2 26-874): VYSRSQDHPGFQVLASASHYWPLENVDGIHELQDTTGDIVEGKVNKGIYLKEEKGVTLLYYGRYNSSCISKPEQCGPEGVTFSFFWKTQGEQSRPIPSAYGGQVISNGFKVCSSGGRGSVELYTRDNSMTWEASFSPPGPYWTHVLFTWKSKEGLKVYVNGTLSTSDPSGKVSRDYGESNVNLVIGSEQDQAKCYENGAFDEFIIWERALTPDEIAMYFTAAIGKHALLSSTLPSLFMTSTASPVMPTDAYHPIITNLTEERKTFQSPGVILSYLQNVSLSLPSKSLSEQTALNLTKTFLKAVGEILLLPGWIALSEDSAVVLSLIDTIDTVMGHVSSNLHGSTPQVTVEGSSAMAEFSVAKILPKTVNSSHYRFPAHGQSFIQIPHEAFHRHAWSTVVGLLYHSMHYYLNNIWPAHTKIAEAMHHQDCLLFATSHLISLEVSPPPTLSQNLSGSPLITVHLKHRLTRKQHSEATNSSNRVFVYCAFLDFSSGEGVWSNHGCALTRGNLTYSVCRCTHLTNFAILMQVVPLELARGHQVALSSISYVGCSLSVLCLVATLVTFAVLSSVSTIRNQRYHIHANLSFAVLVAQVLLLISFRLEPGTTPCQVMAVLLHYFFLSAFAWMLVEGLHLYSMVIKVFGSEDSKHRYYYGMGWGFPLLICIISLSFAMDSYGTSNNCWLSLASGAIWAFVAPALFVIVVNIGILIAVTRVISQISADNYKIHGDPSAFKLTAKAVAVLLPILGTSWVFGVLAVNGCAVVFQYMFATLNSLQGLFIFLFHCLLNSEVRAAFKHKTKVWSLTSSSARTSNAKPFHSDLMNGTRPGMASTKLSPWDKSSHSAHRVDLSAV
The assay is described as follows: BRET assay using TRUPATH biosensors, G protein activation of ADGRD1. The note with it: Gs, ADGRD1 WT, n = 3. The method, then: (§1) To study the synthetic stalk peptide-induced G protein activation of ADGRD1 and ADGRF1, a BRET assay using TRUPATH biosensors was conducted to measure the proximal interaction between RLuc8 fused to the Gα subunit and GFP2 fused to the Gγ subunit. The TRUPATH suite of biosensors was obtained from Addgene (Addgene kit no. 1000000163) as a gift from B. Roth, including GαsS-RLuc8, Gαi1-RLuc8, Gβ3 and Gγ9-GFP2 as previously described.
(§2) The wild-type or mutant ADGRD1 and ADGRF1 were transiently co-transfected with plasmids encoding Gα-RLuc8 (GαsS-RLuc8 for Gs activation assay; Gαi1-RLuc8 for Gi activation assay), Gβ3 and Gγ9-GFP2 at a ratio of 2:1:1:1 (receptor plasmid, 800 ng; G protein subunit plasmids, 400 ng for each) in 2 ml HEK293F cells at a density of 1.2 × 10^6 cells per ml. Cell cultivation and receptor surface expression measurement were performed as described above. The cells were plated into 96-well white plates (40,000 cells per well) in 60 μl of assay buffer and incubated at 37 °C for 30 min. Then 10 μl of freshly prepared 50 μM coelenterazine 400a (Nanolight Technologies) was added. […] The cells were stimulated with 30 μl of synthetic stalk peptide at different concentrations and the BRET signals were monitored continuously five times. The last measurements were used in data analysis. The BRET ratios were calculated as the ratio of the GFP2 emission to RLuc8 emission.

Assay [2] has as its target T2, ADGRF1 (Homo sapiens, UniProt Q5T601, L764A).
T2 construct: Flag (N); expressed in transfected cells; host or cells: HEK293F
The assay is described as follows: BRET assay using TRUPATH biosensors, Gi activation of ADGRF1. The conditions noted are these: ADGRF1 L764^5.56bA, n = 3. The method, then: as §1, §2

Assay [3] addresses T3, ADGRF1 (Homo sapiens, UniProt Q5T601, F641A).
T3 construct: Flag (N); expressed in transfected cells; host or cells: HEK293F
The description is as above. The note with it: ADGRF1 F641^2.64bA. The method, then: as §1, §2

The target in assay [4] is T4, ADGRF1 (Homo sapiens, UniProt Q5T601, L678A).
T4 construct: Flag (N); expressed in transfected cells; host or cells: HEK293F
The description is as above. The conditions noted are these: ADGRF1 L678^3.50bA. The method, then:
as §1, §2

Assay [5] has as its target T5, ADGRF1 (Homo sapiens, UniProt Q5T601, L681E).
T5 construct: Flag (N); expressed in transfected cells; host or cells: HEK293F
The assay is described as above. The note with it: ADGRF1 L681^3.53bE. The method, then:
as §1, §2

The target in assay [6] is T6, ADGRF1 (Homo sapiens, UniProt Q5T601, L593A).
T6 construct: Flag (N); expressed in transfected cells; host or cells: HEK293F
Described as above. The note with it: ADGRF1 L593^1.47bA. The method, then: as §1, §2

In assay [7] the target is T7, ADGRF1 (Homo sapiens, UniProt Q5T601, L752A).
T7 construct: Flag (N); expressed in transfected cells; host or cells: HEK293F
The assay is described as above. The note with it: ADGRF1 L752^5.44bA. The procedure: as §1, §2

Assay [8] addresses T8, ADGRF1 (Homo sapiens, UniProt Q5T601, L681H).
T8 construct: Flag (N); expressed in transfected cells; host or cells: HEK293F
The description is as above. The conditions noted are these: ADGRF1 L681^3.53bH. The procedure:
as §1, §2

The target of assay [9] is T9, ADGRF1 (Homo sapiens, UniProt Q5T601, G702Y).
T9 construct: Flag (N); expressed in transfected cells; host or cells: HEK293F
Described as above. The conditions noted are these: ADGRF1 G702^4.45bY, n = 3. The method, then:
as §1, §2

Assay [10] deals with T10, ADGRF1 (Homo sapiens, UniProt Q5T601, H820A).
T10 construct: Flag (N); expressed in transfected cells; host or cells: HEK293F
The description is as above. The conditions noted are these: ADGRF1 H820^7.39bA. The method, then:
as §1, §2

Setting [11] is: n = 3, read-out: pEC50 (mean ± s.e.m.) (converted).

T4 sequence (Q5T601 20-910 L678A): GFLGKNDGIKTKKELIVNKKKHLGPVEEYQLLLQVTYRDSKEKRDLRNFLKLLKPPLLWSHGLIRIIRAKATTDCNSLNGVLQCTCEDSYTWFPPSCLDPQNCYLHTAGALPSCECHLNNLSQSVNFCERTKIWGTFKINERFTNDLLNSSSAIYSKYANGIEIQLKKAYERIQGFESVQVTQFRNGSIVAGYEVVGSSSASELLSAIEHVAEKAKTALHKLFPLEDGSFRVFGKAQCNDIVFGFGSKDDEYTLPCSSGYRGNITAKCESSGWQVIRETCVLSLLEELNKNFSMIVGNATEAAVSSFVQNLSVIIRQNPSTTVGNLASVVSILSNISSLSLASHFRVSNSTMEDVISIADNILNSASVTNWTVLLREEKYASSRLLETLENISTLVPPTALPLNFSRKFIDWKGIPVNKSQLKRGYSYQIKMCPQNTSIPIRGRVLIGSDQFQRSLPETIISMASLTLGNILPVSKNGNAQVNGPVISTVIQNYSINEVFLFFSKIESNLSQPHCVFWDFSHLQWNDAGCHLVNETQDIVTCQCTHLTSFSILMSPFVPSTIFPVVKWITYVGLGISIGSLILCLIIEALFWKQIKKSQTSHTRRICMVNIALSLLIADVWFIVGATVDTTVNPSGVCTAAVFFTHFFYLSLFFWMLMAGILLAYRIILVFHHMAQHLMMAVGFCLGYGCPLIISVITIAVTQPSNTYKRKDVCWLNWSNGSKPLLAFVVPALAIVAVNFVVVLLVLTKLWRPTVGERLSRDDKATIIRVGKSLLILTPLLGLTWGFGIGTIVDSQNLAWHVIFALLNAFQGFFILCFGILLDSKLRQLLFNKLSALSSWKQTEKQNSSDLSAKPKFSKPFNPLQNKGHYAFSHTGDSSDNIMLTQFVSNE
T5 sequence (Q5T601 20-910 L681E): as the sequence (Q5T601 20-910 L678A) above, with A659L, L662E counted along it
T7 sequence (Q5T601 20-910 L752A): as the sequence (Q5T601 20-910 L678A) above, with A659L, L733A counted along it
T6 sequence (Q5T601 20-910 L593A): as the sequence (Q5T601 20-910 L678A) above, with L574A, A659L counted along it
T3 sequence (Q5T601 20-910 F641A): as the sequence (Q5T601 20-910 L678A) above, with F622A, A659L counted along it
T10 sequence (Q5T601 20-910 H820A): as the sequence (Q5T601 20-910 L678A) above, with A659L, H801A counted along it
T2 sequence (Q5T601 20-910 L764A): as the sequence (Q5T601 20-910 L678A) above, with A659L, L745A counted along it
T9 sequence (Q5T601 20-910 G702Y): as the sequence (Q5T601 20-910 L678A) above, with A659L, G683Y counted along it
T8 sequence (Q5T601 20-910 L681H): as the sequence (Q5T601 20-910 L678A) above, with A659L, L662H counted along it

As to TSFSILMSPFVP [pF1], the “Emax (mean ± s.e.m.)” value in assay [1] is 67 ± 12 % of WT; in [2], 86 ± 14 % of WT; in [3] (n = 3), 82 ± 15 % of WT; in assay [4] (n = 3), 58 ± 7 % of WT; in [5] (n = 3) it was 130 ± 12 % of WT; in assay [6] (n = 3) it was 106 ± 11 % of WT. In addition, the “Emax (mean ± s.e.m.)” value is on record as 90 ± 15 % of WT in [7] (n = 3), 103 ± 13 % of WT in assay [8] (n = 4), 94 ± 16 % of WT in assay [9] and 126 ± 12 % of WT in assay [10] (n = 3). For the same sequence, the EC50 in assay [1] (read-out: pEC50 (mean ± s.e.m.) (converted)) was 1260 nM; in assay [2] it was 1300 nM; in assay [3] (setting [11]) it was 204 nM; in assay [4] (setting [11]), 129 nM; in [5] (setting [11]), 794 nM; in assay [6] (setting [11]), 562 nM. Besides, the EC50 in [7] (setting [11]) was 513 nM; in assay [8] (n = 4, read-out: pEC50 (mean ± s.e.m.) (converted)) it was 347 nM; in [9] it was 1170 nM; in assay [10] (setting [11]), 275 nM.
